The source made the active and inactive calls. No cut-off for these calls is given here.
Experiments:
[1] = biological target: T1, Peroxisome proliferator-activated receptor alpha (Homo sapiens, UniProt Q07869); experiment: (§1) Agonist activity at human PPARalpha by GAL4 transactivation assay; format: functional
T1 sequence (Q07869 whole entry): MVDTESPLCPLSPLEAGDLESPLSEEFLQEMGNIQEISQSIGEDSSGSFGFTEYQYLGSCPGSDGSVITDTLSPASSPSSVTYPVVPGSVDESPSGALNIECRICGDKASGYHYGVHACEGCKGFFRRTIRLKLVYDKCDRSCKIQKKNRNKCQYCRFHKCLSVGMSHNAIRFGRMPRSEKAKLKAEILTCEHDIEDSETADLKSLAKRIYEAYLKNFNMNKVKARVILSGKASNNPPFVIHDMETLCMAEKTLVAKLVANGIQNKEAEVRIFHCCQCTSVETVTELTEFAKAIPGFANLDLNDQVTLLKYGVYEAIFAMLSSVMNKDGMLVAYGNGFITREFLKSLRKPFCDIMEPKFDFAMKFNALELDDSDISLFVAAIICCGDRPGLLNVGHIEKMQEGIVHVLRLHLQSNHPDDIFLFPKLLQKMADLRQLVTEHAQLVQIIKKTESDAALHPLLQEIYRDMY

[2] = biological target: T2, Peroxisome proliferator-activated receptor gamma (Homo sapiens, UniProt P37231)
T2 sequence (P37231 whole entry): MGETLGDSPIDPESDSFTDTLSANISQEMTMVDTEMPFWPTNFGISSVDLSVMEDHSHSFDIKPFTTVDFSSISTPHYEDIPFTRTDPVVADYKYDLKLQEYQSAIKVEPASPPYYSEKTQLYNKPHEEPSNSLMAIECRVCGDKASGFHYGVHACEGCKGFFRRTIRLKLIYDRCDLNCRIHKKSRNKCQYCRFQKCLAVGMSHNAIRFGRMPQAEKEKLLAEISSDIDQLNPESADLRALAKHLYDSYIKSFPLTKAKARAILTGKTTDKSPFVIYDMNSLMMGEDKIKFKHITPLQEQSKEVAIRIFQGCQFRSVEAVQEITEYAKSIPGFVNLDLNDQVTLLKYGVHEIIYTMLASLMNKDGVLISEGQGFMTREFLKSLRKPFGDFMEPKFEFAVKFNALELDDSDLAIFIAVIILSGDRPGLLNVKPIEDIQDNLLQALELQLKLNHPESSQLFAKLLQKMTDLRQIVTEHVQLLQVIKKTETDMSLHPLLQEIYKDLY

[3] = biological target: T3, Peroxisome proliferator-activated receptor alpha (Homo sapiens) (UniProt Q07869); experiment: as §1; format: functional
T3 sequence (whole entry): T1 sequence (Q07869 whole entry)

EC50 [1] [nM]	Ki [2] [nM]	Activity [3]	Compound
414	18		CCO[C@@H](Cc1ccc(OCCc2ccc(OS(C)(=O)=O)cc2)cc1)C(=O)O [TESAGLITAZAR]
	10000	inactive	COC(=O)C(Cc1ccc(OCCN2CCC(C)(C)c3cc(C(=O)c4ccccc4)ccc32)cc1)C(=O)OC
	10000	inactive	COC(=O)C(Cc1ccc(OCCN2CCC(C)(C)c3cc(/C(=N\O)c4ccccc4)ccc32)cc1)C(=O)OC
189	618		CCOC(=O)C(Cc1ccc(OCCN2CCC(C)(C)c3cc(/C(=N\O)c4ccccc4)ccc32)cc1)OCC (stereo not drawn)

From ChEMBL document CHEMBL1141511, “4,4-Dimethyl-1,2,3,4-tetrahydroquinoline-based PPARalpha/gamma agonists. Part I: synthesis and pharmacological evaluation” (Bioorg Med Chem Lett, 2008)
